Patent US9255295B2, “Method for evaluating the sensitizing potential of a test compound” (IMMUNOSEARCH, priority 2010, dated 2016)

System: genes specific for sensitization (BRAK, CTSS, DAPK2, FABP4, HSP27, IL18, HSP90, IL1R2, TPSAB1, CXCR1, DEFB1, DHFR, EHF, IVL, KRT4, MELANA, NGAL, PDZK1IP1, PI3 …)
Experiment: Expression of the other (non-ARE) sensitization-specific genes in EPISKIN reconstructed skin (quantitative RT-PCR)
Format: cell-based, human

Oc1ccc(O)cc1 [Hydroquinone]
BRAK expression compared to control (0.1%): 0.7
BRAK grade (NUMBER OF GENES) (0.1%): 0 (if this expression is lower, the grade is 0)
CTSS expression compared to control (0.1%): 0.7
CTSS grade (NUMBER OF GENES) (0.1%): 0 (if this expression is lower, the grade is 0)
CXCR1 expression compared to control (0.1%): 2.9
CXCR1 grade (NUMBER OF GENES) (0.1%): 1 (If the expression is greater than 1.3 compared to the control, a grade of 11s given)
DAPK2 expression compared to control (0.1%): 1.1
DAPK2 grade (NUMBER OF GENES) (0.1%): 0 (if this expression is lower, the grade is 0)
DEFB1 expression compared to control (0.1%): 1.7
DEFB1 grade (NUMBER OF GENES) (0.1%): 1 (If the expression is greater than 1.3 compared to the control, a grade of 11s given)
DHFR expression compared to control (0.1%): 0.4
DHFR grade (NUMBER OF GENES) (0.1%): 0 (if this expression is lower, the grade is 0)
EHF expression compared to control (0.1%): 1.2
EHF grade (NUMBER OF GENES) (0.1%): 0 (if this expression is lower, the grade is 0)
FABP4 expression compared to control (0.1%): 1.1
FABP4 grade (NUMBER OF GENES) (0.1%): 0 (if this expression is lower, the grade is 0)
HSP27 expression compared to control (0.1%): 0.8
HSP27 grade (NUMBER OF GENES) (0.1%): 0 (if this expression is lower, the grade is 0)
HSP90 expression compared to control (0.1%): 1.3
HSP90 grade (NUMBER OF GENES) (0.1%): 0 (if this expression is lower, the grade is 0)
IL18 expression compared to control (0.1%): 0.8
IL18 grade (NUMBER OF GENES) (0.1%): 0 (if this expression is lower, the grade is 0)
IVL expression compared to control (0.1%): 1.6
IVL grade (NUMBER OF GENES) (0.1%): 1 (If the expression is greater than 1.3 compared to the control, a grade of 11s given)
KRT4 expression compared to control (0.1%): 2.0
KRT4 grade (NUMBER OF GENES) (0.1%): 1 (If the expression is greater than 1.3 compared to the control, a grade of 11s given)
MELANA expression compared to control (0.1%): 0.7
MELANA grade (NUMBER OF GENES) (0.1%): 0 (if this expression is lower, the grade is 0)
NGAL expression compared to control (0.1%): 1.5
NGAL grade (NUMBER OF GENES) (0.1%): 1 (If the expression is greater than 1.3 compared to the control, a grade of 11s given)
P13 expression compared to control (0.1%): 1.1
P13 grade (NUMBER OF GENES) (0.1%): 0 (if this expression is lower, the grade is 0)
PDZK1iP1 expression compared to control (0.1%): 1.2
PDZK1iP1 grade (NUMBER OF GENES) (0.1%): 0 (if this expression is lower, the grade is 0)
SENS >1.3 (NUMBER OF GENES) (0.1%): 2
SERPINB3 expression compared to control (0.1%): 1.1
SERPINB3 grade (NUMBER OF GENES) (0.1%): 0 (if this expression is lower, the grade is 0)
TOTAL SENS (NUMBER OF GENES) (0.1%): 5
BRAK expression compared to control (1%): 0.8
BRAK grade (NUMBER OF GENES) (1%): 0 (if this expression is lower, the grade is 0)
CTSS expression compared to control (1%): 1.2
CTSS grade (NUMBER OF GENES) (1%): 0 (if this expression is lower, the grade is 0)
CXCR1 expression compared to control (1%): 2.8
CXCR1 grade (NUMBER OF GENES) (1%): 1 (If the expression is greater than 1.3 compared to the control, a grade of 11s given)
DAPK2 expression compared to control (1%): 1.2
DAPK2 grade (NUMBER OF GENES) (1%): 0 (if this expression is lower, the grade is 0)
DEFB1 expression compared to control (1%): 1.1
DEFB1 grade (NUMBER OF GENES) (1%): 0 (if this expression is lower, the grade is 0)
DHFR expression compared to control (1%): 0.8
DHFR grade (NUMBER OF GENES) (1%): 0 (if this expression is lower, the grade is 0)
EHF expression compared to control (1%): 1.1
EHF grade (NUMBER OF GENES) (1%): 0 (if this expression is lower, the grade is 0)
FABP4 expression compared to control (1%): 1.1
FABP4 grade (NUMBER OF GENES) (1%): 0 (if this expression is lower, the grade is 0)
HSP27 expression compared to control (1%): 0.9
HSP27 grade (NUMBER OF GENES) (1%): 0 (if this expression is lower, the grade is 0)
HSP90 expression compared to control (1%): 1.1
HSP90 grade (NUMBER OF GENES) (1%): 0 (if this expression is lower, the grade is 0)
IL18 expression compared to control (1%): 0.8
IL18 grade (NUMBER OF GENES) (1%): 0 (if this expression is lower, the grade is 0)
IVL expression compared to control (1%): 1.5
IVL grade (NUMBER OF GENES) (1%): 1 (If the expression is greater than 1.3 compared to the control, a grade of 11s given)
KRT4 expression compared to control (1%): 1.5
KRT4 grade (NUMBER OF GENES) (1%): 1 (If the expression is greater than 1.3 compared to the control, a grade of 11s given)
MELANA expression compared to control (1%): 0.7
MELANA grade (NUMBER OF GENES) (1%): 0 (if this expression is lower, the grade is 0)
NGAL expression compared to control (1%): 1.7
NGAL grade (NUMBER OF GENES) (1%): 1 (If the expression is greater than 1.3 compared to the control, a grade of 11s given)
P13 expression compared to control (1%): 1.2
P13 grade (NUMBER OF GENES) (1%): 0 (if this expression is lower, the grade is 0)
PDZK1iP1 expression compared to control (1%): 1.0
PDZK1iP1 grade (NUMBER OF GENES) (1%): 0 (if this expression is lower, the grade is 0)
SENS >1.3 (NUMBER OF GENES) (1%): 5
SERPINB3 expression compared to control (1%): 1.0
SERPINB3 grade (NUMBER OF GENES) (1%): 0 (if this expression is lower, the grade is 0)
TOTAL SENS (NUMBER OF GENES) (1%): 5
BRAK expression compared to control (10%): 0.8
BRAK grade (NUMBER OF GENES) (10%): 0 (if this expression is lower, the grade is 0)
CTSS expression compared to control (10%): 0.8
CTSS grade (NUMBER OF GENES) (10%): 0 (if this expression is lower, the grade is 0)
CXCR1 expression compared to control (10%): 2.2
CXCR1 grade (NUMBER OF GENES) (10%): 1 (If the expression is greater than 1.3 compared to the control, a grade of 11s given)
DAPK2 expression compared to control (10%): 1.2
DAPK2 grade (NUMBER OF GENES) (10%): 0 (if this expression is lower, the grade is 0)
DEFB1 expression compared to control (10%): 1.5
DEFB1 grade (NUMBER OF GENES) (10%): 1 (If the expression is greater than 1.3 compared to the control, a grade of 11s given)
DHFR expression compared to control (10%): 0.7
DHFR grade (NUMBER OF GENES) (10%): 0 (if this expression is lower, the grade is 0)
EHF expression compared to control (10%): 1.2
EHF grade (NUMBER OF GENES) (10%): 0 (if this expression is lower, the grade is 0)
FABP4 expression compared to control (10%): 1.2
FABP4 grade (NUMBER OF GENES) (10%): 0 (if this expression is lower, the grade is 0)
HSP27 expression compared to control (10%): 1.0
HSP27 grade (NUMBER OF GENES) (10%): 0 (if this expression is lower, the grade is 0)
HSP90 expression compared to control (10%): 1.2
HSP90 grade (NUMBER OF GENES) (10%): 0 (if this expression is lower, the grade is 0)
IL18 expression compared to control (10%): 0.9
IL18 grade (NUMBER OF GENES) (10%): 0 (if this expression is lower, the grade is 0)
IVL expression compared to control (10%): 1.8
IVL grade (NUMBER OF GENES) (10%): 1 (If the expression is greater than 1.3 compared to the control, a grade of 11s given)
KRT4 expression compared to control (10%): 1.2
KRT4 grade (NUMBER OF GENES) (10%): 0 (if this expression is lower, the grade is 0)
MELANA expression compared to control (10%): 0.9
MELANA grade (NUMBER OF GENES) (10%): 0 (if this expression is lower, the grade is 0)
NGAL expression compared to control (10%): 2.0
NGAL grade (NUMBER OF GENES) (10%): 1 (If the expression is greater than 1.3 compared to the control, a grade of 11s given)
P13 expression compared to control (10%): 1.4
P13 grade (NUMBER OF GENES) (10%): 0 (if this expression is lower, the grade is 0)
PDZK1iP1 expression compared to control (10%): 1.0
PDZK1iP1 grade (NUMBER OF GENES) (10%): 0 (if this expression is lower, the grade is 0)
SENS >1.3 (NUMBER OF GENES) (10%): 4
SERPINB3 expression compared to control (10%): 1.1
SERPINB3 grade (NUMBER OF GENES) (10%): 0 (if this expression is lower, the grade is 0)
TOTAL SENS (NUMBER OF GENES) (10%): 4
BRAK expression compared to control (50%): 0.8
BRAK grade (NUMBER OF GENES) (50%): 0 (if this expression is lower, the grade is 0)
CTSS expression compared to control (50%): 1.6
CTSS grade (NUMBER OF GENES) (50%): 1 (If the expression is greater than 1.3 compared to the control, a grade of 11s given)
CXCR1 expression compared to control (50%): 2.9
CXCR1 grade (NUMBER OF GENES) (50%): 1 (If the expression is greater than 1.3 compared to the control, a grade of 11s given)
DAPK2 expression compared to control (50%): 1.0
DAPK2 grade (NUMBER OF GENES) (50%): 0 (if this expression is lower, the grade is 0)
DEFB1 expression compared to control (50%): 2.0
DEFB1 grade (NUMBER OF GENES) (50%): 1 (If the expression is greater than 1.3 compared to the control, a grade of 11s given)
DHFR expression compared to control (50%): 1.1
DHFR grade (NUMBER OF GENES) (50%): 0 (if this expression is lower, the grade is 0)
EHF expression compared to control (50%): 1.5
EHF grade (NUMBER OF GENES) (50%): 1 (If the expression is greater than 1.3 compared to the control, a grade of 11s given)
FABP4 expression compared to control (50%): 1.4
FABP4 grade (NUMBER OF GENES) (50%): 1 (If the expression is greater than 1.3 compared to the control, a grade of 11s given)
HSP27 expression compared to control (50%): 1.3
HSP27 grade (NUMBER OF GENES) (50%): 0 (if this expression is lower, the grade is 0)
HSP90 expression compared to control (50%): 1.8
HSP90 grade (NUMBER OF GENES) (50%): 1 (If the expression is greater than 1.3 compared to the control, a grade of 11s given)
IL18 expression compared to control (50%): 0.9
IL18 grade (NUMBER OF GENES) (50%): 0 (if this expression is lower, the grade is 0)
IVL expression compared to control (50%): 2.6
IVL grade (NUMBER OF GENES) (50%): 1 (If the expression is greater than 1.3 compared to the control, a grade of 11s given)
KRT4 expression compared to control (50%): 1.1
KRT4 grade (NUMBER OF GENES) (50%): 0 (if this expression is lower, the grade is 0)
MELANA expression compared to control (50%): 1.6
MELANA grade (NUMBER OF GENES) (50%): 1 (If the expression is greater than 1.3 compared to the control, a grade of 11s given)
NGAL expression compared to control (50%): 1.3
NGAL grade (NUMBER OF GENES) (50%): 0 (if this expression is lower, the grade is 0)
P13 expression compared to control (50%): 1.7
P13 grade (NUMBER OF GENES) (50%): 1 (If the expression is greater than 1.3 compared to the control, a grade of 11s given)
PDZK1iP1 expression compared to control (50%): 1.0
PDZK1iP1 grade (NUMBER OF GENES) (50%): 0 (if this expression is lower, the grade is 0)
SENS >1.3 (NUMBER OF GENES) (50%): 11
SERPINB3 expression compared to control (50%): 1.1
SERPINB3 grade (NUMBER OF GENES) (50%): 0 (if this expression is lower, the grade is 0)
TOTAL SENS (NUMBER OF GENES) (50%): 11
